Test results reported in PMC5355811 (Nature Communications, 2017).
“And” between values parts separate entries of the source, which are not always exact repeats. Equal entries are not always repeated. Where two headings read alike, the source gives them in different places.

Columns and labels:
Type in all cases: cell-based
[1] = test system: Ba/F3 cells of EGFR-del19; test: Drug sensitivity screening at 100 nM, Ba/F3 EGFR-del19; details: for Relative cell viability (% of DMSO control) in del19 Ba/F3 cells: 100 nM; for viability at 0.1 µM: Mus musculus, BaF3, 72 h, read-out: Relative cell viability (ratio to DMSO control), del19
Experimental: (§1) After the incubation, cell viability was measured using CellTiter-Glo assay. The relative cell viability was calculated as a ratio of each value to that of the DMSO control.

[2] = test system: Ba/F3 cells of EGFR-T790M/del19; test: Drug sensitivity screening at 100 nM, Ba/F3 EGFR-T790M/del19; details: for Relative cell viability (% of DMSO control): 100 nM; for viability at 0.1 µM: Mus musculus, BaF3, 72 h, read-out: Relative cell viability (ratio to DMSO control), del19/T790M
Experimental: as §1

[3] = test system: Ba/F3 cells of EGFR-C797S/T790M/del19; test: Drug sensitivity screening at 100 nM, Ba/F3 EGFR-C797S/T790M/del19; details: Mus musculus, BaF3, 72 h, 100 nM inhibitor, 72 h, DMSO = 100; mean of three independent experiments (Fig. 1a data)
Experimental: as §1

[4] = 100 nM inhibitor, 72 h, DMSO = 100, mean of three independent experiments (Fig. 1a data)

Structure (SMILES)	Relative cell viability (% of DMSO control) in del19 Ba/F3 cells ([1]; 72 h, DMSO = 100, experiment 1)	Relative cell viability (% of DMSO control) in del19 Ba/F3 cells ([1]; 72 h, DMSO = 100, experiment 2)	Relative cell viability (% of DMSO control) in del19 Ba/F3 cells ([1]; 72 h, DMSO = 100, experiment 3)	viability at 0.1 µM [1, 4]	Relative cell viability (% of DMSO control) ([2]; 72 h, DMSO = 100, experiment 1)	Relative cell viability (% of DMSO control) ([2]; 72 h, DMSO = 100, experiment 2)	Relative cell viability (% of DMSO control) ([2]; 72 h, DMSO = 100, experiment 3)	viability at 0.1 µM [2, 4]	viability at 0.1 µM [3]	viability at 0.1 µM [1]	viability at 0.1 µM [2]	Relative cell viability (ratio to DMSO control), del19 [1, 4]	Relative cell viability (ratio to DMSO control), del19/T790M [2, 4]
CC(=O)O[C@H]1C(=O)[C@@]2(C)[C@H]([C@H](OC(=O)c3ccccc3)[C@]3(O)C[C@H](OC(=O)[C@H](O)[C@@H](NC(=O)c4ccccc4)c4ccccc4)C(C)=C1C3(C)C)[C@]1(OC(C)=O)CO[C@@H]1C[C@@H]2O [paclitaxel]	51.8383	52.2569	51.6533	51.9%	72.6289	87.6485	88.6746	83%	95.1%				
COc1cc2nccc(Oc3ccc(NC(=O)C4(C(=O)Nc5ccc(F)cc5)CC4)cc3)c2cc1OC [XL184]	97.6803	120.752	111.655	110%	91.4569	111.038	110.02	104%	137%				
Cn1cnc2c(F)c(Nc3ccc(Br)cc3Cl)c(C(=O)NOCCO)cc21 [AZD6244]	44.8792	57.317	50.3776	50.9%	105.003	111.809	110.93	109%	134%				
Nc1ncnc2c1c(-c1cccc(OCc3ccccc3)c1)cn2[C@H]1C[C@@H](CN2CCC2)C1 [AEW541]	86.142	111.013	118.474	105%				102%	132%				
C[C@]12O[C@H](C[C@]1(O)CO)n1c3ccccc3c3c4c(c5c6ccccc6n2c5c31)CNC4=O [CEP701]										2.57%	7.99%		
CO[C@H]1C[C@@H]2CC[C@@H](C)[C@@](O)(O2)C(=O)C(=O)N2CCCC[C@H]2C(=O)O[C@H]([C@H](C)C[C@@H]2CC[C@@H](O)[C@H](OC)C2)CC(=O)[C@H](C)/C=C(\C)[C@@H](O)[C@@H](OC)C(=O)[C@H](C)C[C@H](C)/C=C/C=C/C=C/1C [Rapamycin, rapamycin]	26.4621	39.8271	36.4731	34.3%	30.0228	36.7261	31.8573	32.9%	27.6%				
CC(=O)Nc1cccc(-n2c(=O)n(C3CC3)c(=O)c3c(Nc4ccc(I)cc4F)n(C)c(=O)c(C)c32)c1 [Trametinib, trametinib]	0.7444	0.954	0.9176	0.872%	11.0855	11.5677	12.1404	11.6%	44.2%				
Cc1ccc(NC(=O)c2ccc(CN3CCN(C)CC3)cc2)cc1Nc1nccc(-c2cccnc2)n1 [Imatinib, imatinib]									129%				
Cc1nc2ccc(-n3ncc(C(=O)c4cc5ccccc5[nH]4)c3N)cc2[nH]1 [CH5183284]	100.01	123.157	110.518		87.4669	110.946	103.872					111.23 and 111.228	100.76 and 100.762
CS(=O)(=O)CCNCc1ccc(-c2ccc3ncnc(Nc4ccc(OCc5cccc(F)c5)c(Cl)c4)c3c2)o1 [Lapatinib, lapatinib]										128%	102%		
COc1cc2nccc(Oc3ccc(NC(=O)NC4CC4)c(Cl)c3)c2cc1C(N)=O [E7080]	87.8792	107.525	116.989		107.332	130.309	117.831					104.13 and 104.131	118.49 and 118.491
O=C(C(c1ccccc1)c1ccccc1)N1CCN(CC(O)COc2cccc3ncccc23)CC1 (stereo not shown) [MS209]	97.9213	113.609	104.789		106.534	123.336	98.5141					105.44	109.461
C=CCNC1=C2C[C@@H](C)C[C@H](OC)[C@H](O)[C@@H](C)/C=C(\C)[C@H](OC(N)=O)[C@@H](OC)/C=C\C=C(/C)C(=O)NC(=CC1=O)C2=O [17-AAG]	47.4299	59.7934	55.225		65.6049	64.9663	61.0089					54.15 and 54.1494	63.86
